Laboratory results published in US11149023B2, “Substituted triazole derivatives and uses thereof” (Bayer Pharma Aktiengesellschaft, priority 2017, dated 2021).

What was measured:
[1] = molecular target: human V2 receptor (Homo sapiens (Human), UniProt P30518); assay: Cellular in vitro assay for determining vasopressin receptor activity (V2, CRE-luciferase); format: cell-based; conditions: CHO cell line transfected with human V2 receptor; [Arg8]-vasopressin at EC50 concentration; read-out: IC50 hV2
human V2 receptor, sequence (P30518 whole entry): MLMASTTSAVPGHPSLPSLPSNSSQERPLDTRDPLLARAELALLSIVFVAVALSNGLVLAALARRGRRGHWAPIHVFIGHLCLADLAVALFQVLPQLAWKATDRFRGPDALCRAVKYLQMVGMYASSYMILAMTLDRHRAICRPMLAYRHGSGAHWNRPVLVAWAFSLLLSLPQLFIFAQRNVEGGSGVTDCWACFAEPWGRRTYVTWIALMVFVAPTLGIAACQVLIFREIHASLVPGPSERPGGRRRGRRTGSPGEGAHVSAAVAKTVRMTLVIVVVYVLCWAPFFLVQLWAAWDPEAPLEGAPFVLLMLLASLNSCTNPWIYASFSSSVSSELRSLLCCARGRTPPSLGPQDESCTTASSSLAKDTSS

[2] = molecular target: human V1a receptor (Homo sapiens (Human), UniProt P37288); assay: Cellular in vitro assay for determining vasopressin receptor activity (V1a, aequorin luminescence); format: cell-based; conditions: for IC50: CHO cell line transfected with human V1a receptor, [Arg8]-vasopressin at EC50 concentration, read-out: IC50 hV1a; for ratio IC50 hV2/hV1a: selectivity, IC50 hV2 divided by IC50 hV1a
human V1a receptor, sequence (P37288 whole entry): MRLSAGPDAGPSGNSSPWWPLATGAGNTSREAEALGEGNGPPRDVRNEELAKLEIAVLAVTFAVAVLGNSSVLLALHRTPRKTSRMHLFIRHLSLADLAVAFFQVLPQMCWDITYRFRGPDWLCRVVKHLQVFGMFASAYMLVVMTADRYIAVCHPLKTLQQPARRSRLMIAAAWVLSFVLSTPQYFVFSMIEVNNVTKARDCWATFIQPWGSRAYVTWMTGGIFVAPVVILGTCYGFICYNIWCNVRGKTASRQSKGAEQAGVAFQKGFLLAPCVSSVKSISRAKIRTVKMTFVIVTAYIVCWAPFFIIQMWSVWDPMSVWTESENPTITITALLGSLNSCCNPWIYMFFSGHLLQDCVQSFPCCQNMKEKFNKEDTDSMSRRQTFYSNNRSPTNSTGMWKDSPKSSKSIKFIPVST

For Cl.O=C(NC(Cn1c(-c2ccc(Cl)cc2)nn(Cc2ncn(-c3ncccc3C(F)(F)F)n2)c1=O)C(F)(F)F)C1NCC1(F)F (stereo not drawn) [Example 69, N-{3-[3-(4-Chlorophenyl)-5-oxo-1-({1-[3-(trifluoromethyl)pyridin-2-yl]-1H-1,2,4-triazol-3-yl}methyl)-1,5-dihydro-4H-1,2,4-triazol-4-yl]-1,1,1-trifluoropropan-2-yl}-3,3-difluoroazetidine-2-carboxamide], the IC50 [1] was 101 nM, the IC50 [2] was 1.95 nM and the “ratio IC50 hV2/hV1a” value [2] was 51.8.
For Cl.O=C(NC(Cn1c(-c2ccc(Cl)cc2)nn(Cc2ncn(-c3ncccc3C(F)(F)F)n2)c1=O)C(F)(F)F)[C@@H]1C[C@@H](F)CN1 (stereo partly drawn) [Example 70, N-{3-[3-(4-Chlorophenyl)-5-oxo-1-({1-[3-(trifluoromethyl)pyridin-2-yl]-1H-1,2,4-triazol-3-yl}methyl)-1,5-dihydro-4H-1,2,4-triazol-4-yl]-1,1,1-trifluoropropan-2-yl}-4-fluoro-L-prolinamide], the IC50 [1] was 445 nM, the IC50 [2] was 6.35 nM and the “ratio IC50 hV2/hV1a” value [2] was 70.1.
For Cl.O=C(NC(Cn1c(-c2ccc(Cl)cc2)nn(Cc2ncn(-c3ncccc3C(F)(F)F)n2)c1=O)C(F)(F)F)[C@@H]1C[C@H](F)CN1 (stereo partly drawn) [Example 71, N-{3-[3-(4-Chlorophenyl)-5-oxo-1-({1-[3-(trifluoromethyl)pyridin-2-yl]-1H-1,2,4-triazol-3-yl}methyl)-1,5-dihydro-4H-1,2,4-triazol-4-yl]-1,1,1-trifluoropropan-2-yl}-4-fluoro-L-prolinamide], the IC50 [1] was 275 nM, the IC50 [2] was 4.9 nM and the “ratio IC50 hV2/hV1a” value [2] was 56.1.
